Test results as given in publication PMC7707423 (Acta biomaterialia, 2017).

How the values were obtained:
IGF-I [1] = target: IGF-I (Homo sapiens, UniProt P05019); assay: Surface plasmon resonance, IGF-I binding to alginate materials; conditions: SPR
chondrocytes [2] = assay: GAG synthesis by encapsulated chondrocytes; format: cell-based, Bos taurus; conditions: control (empty vector) chondrocytes; 0-100 μM KPLHALL, 30 days
chondrocytes [3] = assay: Hydroxyproline; format: cell-based, Bos taurus; conditions: 10, 33 and 100 μM binding sites; p<0.001 by 2-way ANOVA
IGF-I [4] = assay: Immunohistochemistry / retention of IGF-I in chondrocyte constructs; format: cell-based, Bos taurus; conditions: 100 μM of binding sites
type II collagen = assay: Immunohistochemistry of constructs for type II collagen; format: cell-based, Bos taurus; conditions: particularly at higher concentrations of KPLHALL
[5] = target: mini-IGFBP-5 binding pocket (Homo sapiens) (UniProt P24593); conditions: cited from earlier work
IGFBP-5 (Homo sapiens) = IGFBP-5 (Homo sapiens) (UniProt P24593); conditions: cited from earlier work
Sequence of IGFBP-5 (Homo sapiens) (P24593 21-272): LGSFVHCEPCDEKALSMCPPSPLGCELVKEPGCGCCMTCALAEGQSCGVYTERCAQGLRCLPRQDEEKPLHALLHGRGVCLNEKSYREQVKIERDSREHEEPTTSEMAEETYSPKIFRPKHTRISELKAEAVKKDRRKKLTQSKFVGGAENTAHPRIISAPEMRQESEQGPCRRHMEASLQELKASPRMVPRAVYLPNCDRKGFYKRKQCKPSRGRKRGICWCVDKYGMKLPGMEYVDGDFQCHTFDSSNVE

Sequence of IGF-I (from UniProt P05019) (P05019 49-118): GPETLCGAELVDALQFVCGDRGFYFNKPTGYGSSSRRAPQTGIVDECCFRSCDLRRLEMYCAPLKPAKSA
Sequence of IGF-I (Homo sapiens, UniProt P05019) (P05019 49-118 limits assumed): as the sequence (P05019 49-118) above
Sequence of mini-IGFBP-5 binding pocket (Homo sapiens) (P24593 60-112): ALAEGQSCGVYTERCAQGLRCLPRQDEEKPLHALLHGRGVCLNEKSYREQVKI

Row | KD shift of KPLHALL alginate compared to alginate (IGF-I [1]; KD 50 nM vs 513 nM) [times] | enhancement of binding affinity for IGF-I by KPLHALL modification (IGF-I [1]; vs unmodified alginate) | GAG synthesis enhancement (maximum of steady state, normalized to alginate 0 μM) (chondrocytes [2]) [fold] | Substance | effect on HYPRO of binding-site concentration (chondrocytes [3]) | IGF-I immunostaining at day 30 (IGF-I [4]) | type II collagen immunostaining at day 30 (type II collagen) | Kd [5] [nM] | Kd (IGFBP-5 (Homo sapiens)) [nM]
1 | 10 | more than 10 fold | 1.6 | GGG-KPLALL (KPLHALL) [KPLHALL alginate] | greater in concentrations of 10, 33 and 100 μM binding sites | highest immunolocalization of IGF-I | robust staining for type II collagen |  | 
2 |  |  |  | IGF-I (from UniProt P05019) |  |  |  | 37 | 3.7
